Reference: patent US20230392115A1, “METHODS FOR MAKING AND USING DIFFERENTIATED NEURAL CELLS” (Research Development Foundation, priority 2020, published 2023)

Experiments:
[1] = tested on: human embryonic stem cell line HS420; test: Q-RT-PCR of neuroectodermal markers (Pax-6, Sox-1, nestin) at day 8; format: cell-based
Experimental: FIG. 5: Quantification of neuroectodermal markers following exposition of HS420 cells one week with ALKi or dualSMAD inhibition. Results are expressed as the percentage of control condition (DMSO) in three independent experiments. The bars in each bar graph represent, from left to right, data from DMH-1, DMH-2, K02288, A8301, and LDN+SB.
(§1) Quantitative PCR was performed with Tecan Freedom Evo by using SYBR green fluorescence. cDNA was produced from RNA by using the prime script RT reagent kit (Takara). All primers were diluted at a concentration of 0.86 μM, and a master mix was used (Power SYBR Green Master Mix, Thermo Fisher Scientific).
Q-RT-PCR experiments were performed to provide a quantitative description of neural-inducing effects of the 4 compounds (in three independent experiments).

[2] = ATP-based cytotoxicity assay (Cmax allowing 100% viability); conditions: human, human embryonic pluripotent stem cell line HS420; HS420 cells; ATP quantification assay; read-out: Cmax (in vitro concentration allowing 100% of survival)
Excerpt: Multiple combinations between Noggin, LDN193189 and SB431542 are commonly used and generally called “dualSMAD inhibition”. It represents to date the most widely used way to induce early neural specification of PSC in vitro. Described herein is the report of a differentiation approach that excludes “dual Smad inhibition,” and instead achieves differentiation through the use of 5 chemicals inhibiting ALK to induce neural specification of pluripotent stem cells in vitro: ML347, DMH1, DMH2, K02288 and A8301 (Table 1). Table 1 indicates their name, PubChem ID and toxicity on the human embryonic Pluripotent Stem Cell line (ePSC) HS420, by using an ATP-based cytotoxicity assay. The Cmax was defined as the maximal concentration in vitro allowing 100% of viability of cells.

[3] = tested on: human embryonic stem cell line HS420; test: Morphology of embryonic stem cells after one week of exposure in neural induction medium; format: cell-based; conditions: 0.2 μM; for morphological modifications of embryonic stem cells: vs control (DMSO)
Experimental: (§2) For neural differentiation, HS420 cells at 50% of confluency were passaged in new laminin 521-coated tissue culture plates at the density of 10000 cells/cm^2 in Stemflex medium supplemented with ROCK inhibitor (Y27632, abcam) at 10 μM. After 24 h, cells were submitted to a medium change, the Stemflex being replaced by the following neural induction medium: Neurobasal (Thermofisher) supplemented with penicillin/streptomycin 100 U/ml (Invitrogen), B-27 supplement (Thermofisher), L-glutamine 2 mM (Thermofisher). Cells were passaged at day 8 and subsequent confluency (every weeks), by the use of Accutase (Thermofisher) and replated on polyornithine/Matrigel (Sigma)-coated tissue culture flasks at the density of 50 000/cm^2. • 3. Immunocytochemistry
(§3) To study the effects of ML347, DMH1, DMH2, K02288 and A8301 on PSC, the human embryonic stem cell line HS420 was used. Cells were plated at a low density on laminin 521 (10000/cm^2) in their maintenance medium (Stemflex) and exposed 24 h later to ML347, DMH1 or DMH2 or K02288 or A8301, during one week, at the concentration of 0.2 μM in a minimal medium suited for early neural induction. Once confluent (after 8 days), cells were passaged and plated in the same medium, without neural inductors, at the density of 50000/cm^2 polyornithine/Matrigel—coated tissue culture flasks for maturation (FIG. 2).

HS420 cells [4] = test: Q-RT-PCR of regionalization markers (Otx-2, Lmxla, FoxA2, FoxG1, Msx-1) at day 8; format: cell-based, human; conditions: 0.2 uM, day 8, normalized to vehicle
Experimental: FIG. 6: HS420 cells were exposed for 8 days to dual SMAD inhibition or ALK inhibitors at the concentration of 0.2 μM. Regionalization markers were measured by Q-RT-PCR and normalized with control conditions (no compounds, vehicle alone).
as §1
A possible impact of ALK inhibitors on early neural specification was analysed after 8 days of differentiation and compared with dual SMAD inhibition. Several markers of early specification, focusing on forebrain/midbrain regionalization were measured by Q-RT-PCR at day 8 in neural induction medium. The following markers were tested: Otx-2 which is an anterior marker (forebrain and midbrain), Lmxla which is expressed in dorsal and ventral midbrain, FoxA2 which is a ventral marker in forebrain, midbrain and hindbrain. Was also tested the forebrain FoxG1 and Msx-1 which is more specific for early dopaminergic differentiation. Several experiments were performed (n=3) and values were normalized as the percentage of control (=no compound, vehicle lone). At this early stage (day 8), FoxA2 and Msx-1 were not detected by PCR in all conditions, showing the absence of acquisition of a ventral and dopaminergic identity. […] The Hindbrain marker HoxA2 was not detected at this stage (not shown), showing the absence of a hindbrain identity (not shown). […] DMH1 and DMH2 reduce the forebrain identity, a useful prerequisite for dopaminergic specification.

HS420 cells [5] = test: Neuronal maturation after passage (nestin-, βIII-tubulin+ cells); format: cell-based, human; conditions: cells previously exposed to ALKi 0.2 μM, passaged at day 8, maturation
Experimental: FIG. 7: Neuronal maturation f HS420 cells (one month) exposed to ALKi versus dualSMAD inhibition.
as §2
At confluency (occurring in these conditions at day 8), cells were passaged at a very low density with Accutase and polyornithine/Matrigel-coated dished for neuronal maturation in appropriated medium. Neuronal cells (nestin− and βIII-tubulin+ cells with a neuritic morphology) were present in cells previously exposed to the four compounds, in contrast to control conditions from which cells reduced progressively their number, with only few neuronal cells in the plate (FIG. 7).

[6] = tested on: human embryonic stem cell line HS420; test: Immunofluorescent staining for nestin, Pax-6, Sox-1 at day 8; format: cell-based; conditions: 0.2 μM
Experimental: Cells on glass coverslips were fixed with 1 mL of 0.5% paraformaldehyde in PBS for 30 minutes at room temperature. Cells were then washed three times with 1 mL of PBS and incubated overnight with primary antibodies in PBS containing 0.1% Triton X-100 (Sigma), and 1% bovine serumalbumine (Sigma). Cells were washed three times with 1 mL of PBS before incubation for 1 h30 min with the secondary antibody in PBS containing 0.1% Triton X-100 and 1% bovine serumalbumine. Cells were washed three times with PBS before exposure to DAPI 300 nM in PBS (Sigma) for 15 minutes at room temperature. After three washes in PBS, cells were rinsed with water and mounted in glass slides using Fluorsave reagent (Merck Millipore). • 4. Quantitative RT PCR
as §3, with “2). […]” for “2).”

Molecule	Cmax [2]	morphological modifications of embryonic stem cells [3]	FoxG1 expression (forebrain specification) (HS420 cells [4])	neural induction with generation of cells able to mature into neurons (HS420 cells [5])	other results
c1ccc2c(-c3cnn4cc(-c5ccc(N6CCNCC6)cc5)cnc34)ccnc2c1 [LDN193189]					expression of Pax-6, Sox-1 and nestin mRNAs compared to control ([1]; 0.5 μM): increased the expression of Pax-6, Sox-1 and nestin mRNAs
c1ccc2c(-c3cnn4cc(-c5ccc(OCCN6CCOCC6)cc5)cnc34)ccnc2c1 [DMH2, 4-(2-(4-(3-(Quinolin-4-yl)pyrazolo[1,5-a]pyrimidin-6-yl)phenoxy)ethyl)morpholine]	580 ± 200 nM	showed morphological modifications	reduced FoxG1 expression	favoured neural induction with the generation of cells able to be further maturated into neurons	
Cc1cccc(-c2nn(C(=S)Nc3ccccc3)cc2-c2ccnc3ccccc23)n1 [A8301, 3-(6-Methylpyridin-2-yl)-N-phenyl-4-(quinolin-4-yl)-1H-pyrazole-1-carbothioamide]	5180 ± 1780 nM	showed morphological modifications	upregulation of FoxG1	favoured neural induction with the generation of cells able to be further maturated into neurons	epithelial-like cells spreading between the colonies [3]: invaded as a monolayer the free tissue culture plate between the colonies; expression of nestin, Pax-6 and Sox-1 by immunofluorescent staining [6]: homogeneously expressed nestin, Pax-6 and Sox-1
COc1ccc(-c2cnc3c(-c4cccc5ncccc45)cnn3c2)cc1 [ML347, 5-[6-(4 Methoxyphenyl)pyrazolo[1,5-a]pyrimidin-3-yl]quinoline]	580 ± 200 nM				
COc1cc(-c2cc(-c3cccc(O)c3)cnc2N)cc(OC)c1OC [K02288, 3-[6-Amino-5-(3,4,5-Trimethoxyphenyl)pyridin-3-Yl]phenol]	530 ± 250 nM	showed morphological modifications		favoured neural induction with the generation of cells able to be further maturated into neurons	epithelial-like cells spreading between the colonies [3]: invaded as a monolayer the free tissue culture plate between the colonies; expression of nestin, Pax-6 and Sox-1 by immunofluorescent staining [6]: homogeneously expressed nestin, Pax-6 and Sox-1
CC(C)Oc1ccc(-c2cnc3c(-c4ccnc5ccccc45)cnn3c2)cc1 [DMH1, 4-[6-(4-Propan-2-yloxyphenyl)pyrazolo[1,5-a]pyrimidin-3-yl]quinoline]	970 ± 460 nM	showed morphological modifications	reduced FoxG1 expression	favoured neural induction with the generation of cells able to be further maturated into neurons	
NC(=O)c1ccc(-c2nc(-c3ccc4c(c3)OCO4)c(-c3ccccn3)[nH]2)cc1 [SB431542, 4-(4-(Benzo[d][1,3]dioxol-5-yl)-5-(pyridin-2-yl)-1H-imidazol-2-yl)benzamide]					Sox-1 mRNA ([1]; alone at 10 μM): moderate increase; expression of the three markers (Pax-6, Sox-1, nestin mRNAs) ([1]; alone at 10 μM): did not increase the three markers
Noggin: Noggin protein, BMP inhibitor, provided by Miltenyi Biotec (ref 130-103-456) (protein, UniProt Q13253 28-232, looked up) Noggin: QHYLHIRPAPSDNLPLVDLIEHPDPIFDPKEKDLNETLLRSLLGGHYDPGFMATSPPEDRPGGGGGAAGGAEDLAELDQLLRQRPSGAMPSEIKGLEFSEGLAQGKKQRLSKKLRRKLQMWLWSQTFCPVLYAWNDLGSRFWPRYVKVGSCFSKRSCSVPEGMVCKPSKSVHLTVLRWRCQRRGGQRCGWIPIQYPIISECKCSC					effect on neuroectodermal marker mRNAs ([1]; alone at 100 ng/ml): moderate effect
